# Test results as given in ChEMBL document CHEMBL1125035, “Synthesis and biological activity of novel vitamin D analogues: 24,24-difluoro-25-hydroxy-26,27-dimethylvitamin D3 and 24,24-difluoro-1 alpha,25-dihydroxy-26,27-dimethylvitamin D3” (1990).
# What was measured:
# [1] = system: Rattus norvegicus; test: Ability to mobilize Bone-Calcium transport, following the administration of compound in rats at a concentration of 5 pmol at 72 hr.; assay type: functional, organism-based
# [2] = system: Rattus norvegicus; test: Ability to stimulate intestinal-calcium transport by the administration of compound in rats at a concentration of 500 pmol at 24 hr.; assay type: functional, Intestine
# [3] = system: Rattus norvegicus; test: Ability to stimulate intestinal-calcium transport by the administration of compound in rats at a concentration of 5000 pmol at 24 hr.; assay type: functional, Intestine
# [4] = biological target: T1, Vitamin D-binding protein (Rattus norvegicus) (UniProt P04276); test: Displacement of [3H]25-(OH)-D3 from rat plasma Vitamin D binding protein; assay type: cell-free
# T1 sequence (whole entry): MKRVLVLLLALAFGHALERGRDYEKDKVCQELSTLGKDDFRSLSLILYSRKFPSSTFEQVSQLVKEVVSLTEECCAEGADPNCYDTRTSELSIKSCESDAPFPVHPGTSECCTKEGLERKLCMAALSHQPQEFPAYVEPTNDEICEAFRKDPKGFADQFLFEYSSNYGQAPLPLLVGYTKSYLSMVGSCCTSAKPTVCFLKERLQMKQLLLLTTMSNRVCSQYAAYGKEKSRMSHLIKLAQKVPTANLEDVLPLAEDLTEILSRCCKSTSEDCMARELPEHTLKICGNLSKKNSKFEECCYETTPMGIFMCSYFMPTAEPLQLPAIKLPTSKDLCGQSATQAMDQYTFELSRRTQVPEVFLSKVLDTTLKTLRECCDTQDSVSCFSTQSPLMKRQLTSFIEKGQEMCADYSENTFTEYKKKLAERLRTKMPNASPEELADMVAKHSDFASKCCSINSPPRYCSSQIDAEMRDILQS
# [5] = system: Rattus norvegicus; test: Ability to mobilize Bone-Calcium transport, following the administration of compound in rats at a concentration of 500 pmol at 72 hr.; assay type: functional, organism-based
# [6] = system: Rattus norvegicus; test: Ability to stimulate intestinal-calcium transport by the administration of compound in rats at a concentration of 50 pmol at 24 hr.; assay type: functional, Intestine
# [7] = system: Rattus norvegicus; test: Ability to stimulate intestinal-calcium transport by the administration of compound in rats at a concentration of 5 pmol at 24 hr.; assay type: functional, Intestine
# [8] = system: Rattus norvegicus; test: Ability to stimulate intestinal-calcium transport by the administration of compound in rats at a concentration of 5 pmol at 4 hr.; assay type: functional, Intestine
# [9] = system: Rattus norvegicus; test: Ability to stimulate intestinal-calcium transport by the administration of compound in rats at a concentration of 5000 pmol at 2 hr.; assay type: functional, Intestine
# [10] = system: Rattus norvegicus; test: Ability to mobilize Bone-Calcium transport, following the administration of compound in rats at a concentration of 5 pmol at 24 hr.; assay type: functional, organism-based
# [11] = system: Rattus norvegicus; test: Ability to stimulate intestinal-calcium transport by the administration of compound in rats at a concentration of 500 pmol at 2 hr.; assay type: functional, Intestine
# [12] = system: Rattus norvegicus; test: Ability to mobilize Bone-Calcium transport, following the administration of compound in rats at a concentration of 50 pmol at 2 hr.; assay type: functional, organism-based
# [13] = system: Rattus norvegicus; test: Ability to mobilize Bone-Calcium transport, following the administration of compound in rats at a concentration of 500 pmol at 2 hr.; assay type: functional, organism-based
# [14] = system: Rattus norvegicus; test: Ability to stimulate intestinal-calcium transport by the administration of compound in rats at a concentration of 5 pmol at 2 hr.; assay type: functional, Intestine
# [15] = system: Rattus norvegicus; test: Ability to stimulate intestinal-calcium transport by the administration of compound in rats at a concentration of 5000 pmol at 13 hr.; assay type: functional, Intestine
# [16] = system: Rattus norvegicus; test: Ability to mobilize Bone-Calcium transport, following the administration of compound in rats at a concentration of 5000 pmol at 24 hr.; assay type: functional, organism-based
# [17] = system: Rattus norvegicus; test: Ability to mobilize Bone-Calcium transport, following the administration of compound in rats at a concentration of 500 pmol at 47 hr.; assay type: functional, organism-based
# [18] = system: Rattus norvegicus; test: Ability to mobilize Bone-Calcium transport, following the administration of compound in rats at a concentration of 5000 pmol at 4 hr.; assay type: functional, organism-based
# [19] = system: Rattus norvegicus; test: Ability to mobilize Bone-Calcium transport, following the administration of compound in rats at a concentration of 50 pmol at 24 hr.; assay type: functional, organism-based
# [20] = system: Rattus norvegicus; test: Ability to mobilize Bone-Calcium transport, following the administration of compound in rats at a concentration of 500 pmol at 4 hr.; assay type: functional, organism-based
# [21] = system: Rattus norvegicus; test: Ability to stimulate intestinal-calcium transport by the administration of compound in rats at a concentration of 50 pmol at 4 hr.; assay type: functional, Intestine
# [22] = system: Rattus norvegicus; test: Ability to mobilize Bone-Calcium transport, following the administration of compound in rats at a concentration of 50 pmol at 4 hr.; assay type: functional, organism-based
# [23] = system: Rattus norvegicus; test: Ability to stimulate intestinal-calcium transport by the administration of compound in rats at a concentration of 500 pmol at 47 hr.; assay type: functional, Intestine
# [24] = system: Rattus norvegicus; test: Ability to mobilize Bone-Calcium transport, following the administration of compound in rats at a concentration of 5 pmol at 2 hr.; assay type: functional, organism-based
# [25] = system: Rattus norvegicus; test: Ability to stimulate intestinal-calcium transport by the administration of compound in rats at a concentration of 50 pmol at 2 hr.; assay type: functional, Intestine
# [26] = system: Rattus norvegicus; test: Ability to stimulate intestinal-calcium transport by the administration of compound in rats at a concentration of 5000 pmol at 4 hr.; assay type: functional, Intestine
# [27] = system: Rattus norvegicus; test: Ability to mobilize Bone-Calcium transport, following the administration of compound in rats at a concentration of 5000 pmol at 2 hr.; assay type: functional, organism-based
# [28] = system: Rattus norvegicus; test: Ability to mobilize Bone-Calcium transport, following the administration of compound in rats at a concentration of 5 pmol at 4 hr.; assay type: functional, organism-based
# [29] = system: Rattus norvegicus; test: Ability to stimulate intestinal-calcium transport by the administration of compound in rats at a concentration of 500 pmol at 4 hr.; assay type: functional, Intestine
# [30] = organism: Gallus gallus; test: Bind to chick intestinal Vitamin D3 receptor for 1,25-(OH)2-D3
# [31] = system: Rattus norvegicus; test: Ability to mobilize Bone-Calcium transport, following the administration of compound in rats at a concentration of 500 pmol at 24 hr.; assay type: functional, organism-based
# [32] = system: Rattus norvegicus; test: Ability to mobilize Bone-Calcium transport, following the administration of compound in rats at a concentration of 50 pmol at 69 hr.; assay type: functional, organism-based
# [33] = system: Rattus norvegicus; test: Ability to stimulate intestinal-calcium transport by the administration of compound in rats at a concentration of 50 pmol at 12 hr.; assay type: functional, Intestine
# [34] = system: Rattus norvegicus; test: Ability to stimulate intestinal-calcium transport by the administration of compound in rats at a concentration of 5 pmol at 69 hr.; assay type: functional, Intestine
# [35] = system: Rattus norvegicus; test: Ability to stimulate intestinal-calcium transport by the administration of compound in rats at a concentration of 5000 pmol at 12 hr.; assay type: functional, Intestine
# [36] = system: Rattus norvegicus; test: Ability to mobilize Bone-Calcium transport, following the administration of compound in rats at a concentration of 50 pmol at 12 hr.; assay type: functional, organism-based
# [37] = system: Rattus norvegicus; test: Ability to mobilize Bone-Calcium transport, following the administration of compound in rats at a concentration of 5 pmol at 69 hr.; assay type: functional, organism-based
# [38] = system: Rattus norvegicus; test: Ability to mobilize Bone-Calcium transport, following the administration of compound in rats at a concentration of 5000 pmol at 12 hr.; assay type: functional, organism-based
Compound,Serosal/Mucosal Ca [2],Serosal/Mucosal Ca [3],B50 [4] [nM],Serosal/Mucosal Ca [6],Serosal/Mucosal Ca [7],Serosal/Mucosal Ca [8],Serosal/Mucosal Ca [9],Serum Ca2+ [10] [mg/dL],Serosal/Mucosal Ca [11],Serum Ca2+ [12] [mg/dL],Serum Ca2+ [13] [mg/dL],Serosal/Mucosal Ca [14],Serum Ca2+ [16] [mg/dL],Serum Ca2+ [18] [mg/dL],Serum Ca2+ [19] [mg/dL],Serum Ca2+ [20] [mg/dL],Serosal/Mucosal Ca [21],Serum Ca2+ [22] [mg/dL],Serum Ca2+ [24] [mg/dL],Serosal/Mucosal Ca [25],further results
C=C1CC[C@H](O)C/C1=C/C=C1\CCC[C@]2(C)[C@@H]([C@H](C)CCCC(C)(C)O)CC[C@@H]12 [CALCIFEDIOL ANHYDROUS],7.19,7.19,3.77,4.8,2.84,2.42,2.93,4.34,2.22,4.48,4.66,2.03,5.82,4.12,5.06,4.22,2.17,4.1,4.32,1.75,Serum Ca2+ [1]: 4.32 mg/dL; Serum Ca2+ [5]: 5.04 mg/dL; Serosal/Mucosal Ca [15]: 5.43; Serum Ca2+ [17]: 5.12 mg/dL; Serosal/Mucosal Ca [23]: 9.99; Serosal/Mucosal Ca [26]: 3.31; Serum Ca2+ [27]: 4.64 mg/dL; Serum Ca2+ [28]: 4.14 mg/dL; Serosal/Mucosal Ca [29]: 2.83; B50 [30]: 282 nM; Serum Ca2+ [31]: 5.5 mg/dL
C=C1/C(=C\C=C2/CCC[C@]3(C)[C@@H]([C@H](C)CCC(F)(F)C(O)(CC)CC)CC[C@@H]23)C[C@@H](O)C[C@@H]1O,7.3,5.32,2200,3.93,2.14,3.36,3.7,4.38,4.55,4.42,4.8,2.08,6.36,5.48,4.74,5.1,4.22,5,4.5,2.27,Serum Ca2+ [32]: 4.02 mg/dL; Serosal/Mucosal Ca [33]: 4.41; Serosal/Mucosal Ca [34]: 2.34; Serosal/Mucosal Ca [35]: 8.39; Serum Ca2+ [36]: 5.5 mg/dL; Serum Ca2+ [37]: 4.13 mg/dL; Serosal/Mucosal Ca [26]: 4.84; Serum Ca2+ [27]: 5.1 mg/dL; Serum Ca2+ [28]: 4.28 mg/dL; Serosal/Mucosal Ca [29]: 6.44; B50 [30]: 0.495 nM; Serum Ca2+ [31]: 5.58 mg/dL; Serum Ca2+ [38]: 6.4 mg/dL
C=C1/C(=C\C=C2/CCC[C@]3(C)[C@@H]([C@H](C)CCCC(C)(C)O)CC[C@@H]23)C[C@@H](O)C[C@@H]1O [CALCITRIOL],3.5,4.71,45.3,4.34,2.95,2.53,3.12,4.58,3.1,4.35,4.76,2.21,5.5,5.6,5,5.32,5.09,4.58,4.4,2.5,Serum Ca2+ [32]: 4.55 mg/dL; Serosal/Mucosal Ca [33]: 3.23; Serosal/Mucosal Ca [34]: 2.75; Serosal/Mucosal Ca [35]: 7; Serum Ca2+ [36]: 5.58 mg/dL; Serum Ca2+ [37]: 4.12 mg/dL; Serosal/Mucosal Ca [26]: 7.66; Serum Ca2+ [27]: 4.84 mg/dL; Serum Ca2+ [28]: 4.32 mg/dL; Serosal/Mucosal Ca [29]: 6.6; B50 [30]: 0.0725 nM; Serum Ca2+ [31]: 4.98 mg/dL; Serum Ca2+ [38]: 6.14 mg/dL
C=C1CC[C@H](O)C/C1=C/C=C1\CCC[C@]2(C)[C@@H]([C@H](C)CCC(F)(F)C(O)(CC)CC)CC[C@@H]12,7.11,8.65,25.8,6.16,2.34,1.61,3.77,4.9,2.58,4.28,4.22,1.89,5.9,4.56,4.72,4.4,1.97,4.18,4.4,1.8,Serum Ca2+ [1]: 4.2 mg/dL; Serum Ca2+ [5]: 4.38 mg/dL; Serosal/Mucosal Ca [15]: 4.84; Serum Ca2+ [17]: 4.5 mg/dL; Serosal/Mucosal Ca [23]: 8.04; Serosal/Mucosal Ca [26]: 3.18; Serum Ca2+ [27]: 4.78 mg/dL; Serum Ca2+ [28]: 4.38 mg/dL; Serosal/Mucosal Ca [29]: 2.27; B50 [30]: 52.8 nM; Serum Ca2+ [31]: 5.1 mg/dL
